EP0013144A1, “Substituted diphenylamine derivatives, compositions and herbicidal uses thereof, and processes for their preparation” (ICI AUSTRALIA LIMITED, priority 1978, dated 1980)

What was measured:
Format in all cases: in vivo
Rice [1] = assay: Pre-emergence herbicidal test, fibre trays (Example 33); parameters: key: 0 is 0 to 20% damage; 5 is complete kill; settings: after 21 days
Description: (§1) The compounds were formulated for test by mixing an appropriate amount with 5 ml of an emulsion prepared by diluting 160 ml of a solution containing 21.S g per litre of "Span" 80 and 78.2 g per litre of "Tween" 20 in methylcyclohexanone to 500 ml with water. "Span" 80 is a Trade Mark for a surface-active agent comprising sorbitan monolaurate. "Tween" 20 is a Trade Mark for a surface-active agent comprising a condensate of sorbitan monolaurate with 20 molar proportions of ethylene oxide. Each 5 ml emulsion containing a test compound was'then diluted to 40 ml with water and sprayed on to young pot plants (post-emergence test) of the species named in Table 5 below. Damage to test plants was assessed after 14 days on a scale of 0 to 5 where 0 is 0 to 20% damage and 5 is complete kill. In a test for pre-emergence herbicidal activity, seeds of the test plants were sown in a shallow slit formed in the surface of soil in fibre trays. The surface was then levelled and sprayed, and fresh soil then spread thinly over the sprayed surface. Assessment of herbicidal damage was carried out after 21 days using the same scale of 0 to 5 as the post-emergence test. In both cases the degree of herbicidal damage was assessed by comparison with untreated control plants. A dash (-) means that no experiment was carried out.

Winter wheat = assay: Post-emergence herbicidal test, young pot plants (Example 33); parameters: key: 0 = 0-20% damage, 5 = complete kill, vs untreated control; settings: after 14 days
Description: as §1

Maize [2] = assay: as above; parameters: key: 0 is 0 to 20% damage; 5 is complete kill; settings: after 14 days
Description: as §1

Rice [3] = assay: as above; parameters: key: 0 is 0 to 20% damage; 5 is complete kill; settings: after 14 days
Description: as §1

Polygonum aviculare [4] = assay: as above; settings: 2.0 kg/ha, after 14 days
Method in brief: (§2)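 Formulation: test cpd in Span 80/Tween 20 emulsion in methylcyclohexanone, diluted to spray volume with water. Post-em: spray onto young pot plants, score d14. Pre-em: seeds in soil slit in fibre trays, levelled, sprayed, thin fresh soil cover, score d21. Scale 0–5 vs untreated.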

Senecio vulgaris = assay: as above; settings: after 14 days
Method in brief: as §2

Rape = assay: as above; settings: 2.0 kg/ha, after 14 days
Method in brief: as §2

Maize [5] = assay: Pre-emergence herbicidal test, fibre trays (Example 33); parameters: key: 0 = 0-20% damage, 5 = complete kill, vs untreated control; settings: after 21 days
Description: as §1

Polygonum aviculare [6] = assay: as above; settings: after 21 days
Method in brief: as §2

Chenopodium album = assay: as above; settings: 2.0 kg/ha, after 21 days
Method in brief: as §2

Amaranthus retroflexus = assay: as above; settings: after 21 days
Method in brief: as §2

Wheat = assay: Pre-emergence herbicidal activity (Example 31); parameters: key: 0-3 scale: 0 = 0-25% damage, 3 = 75-99% kill, 3+ = 100% kill; settings: after three weeks
Method in brief: (§3)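 Seeded soil boxes (seeds at 2 cm) were sprayed with water-diluted emulsifiable concentrates or milled suspensions, then held under glass. Three weeks later, visual scoring: 0 = 0–25% damage, 3 = 75–99% kill, 3+ = complete kill; unsprayed duplicate boxes as reference.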

Ryegrass = assay: Pre-emergence herbicidal activity (Example 31); parameters: key: 0-3 scale: 0 = 0-25% damage, 3 = 75-99% kill, 3+ = 100% kill; settings: after three weeks
Method in brief: as §3

Wild Oats [7] = assay: Pre-emergence herbicidal activity (Example 31); settings: after three weeks
Method in brief: as §3

Wild Oats [8] = assay: Post-emergence herbicidal activity (Example 32); settings: 3 weeks after spraying
Method in brief: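 Glasshouse-raised seedlings received a single foliar spray once 10–12.5 cm high. The dose form was a diluted emulsifiable concentrate or milled suspension. Three weeks later, damage was visually graded 0–3, where 3+ denotes complete kill.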

SMILES: COC(=O)C(C)Oc1ccc(N(C)c2ccc(Br)cc2[N+](=O)[O-])cc1 (stereo not shown) [Compound 30]
- herbicidal damage, Rc (Rice [1]; 2.0 kg/ha): 5
- damage to test plants, Ww (Winter wheat; 2.0 kg/ha): 4
- damage to test plants, Mz (Maize [2]; 2.0 kg/ha): 5
- damage to test plants, Rc (Rice [3]; 2.0 kg/ha): 4
- damage to test plants, Pi (Polygonum aviculare [4]): 0 (0 is 0 to 20% damage)
- damage to test plants, Sn (Senecio vulgaris; 2.0 kg/ha): 2
- damage to test plants, Rp (Rape): 1
- herbicidal damage, Mz (Maize [5]; 2.0 kg/ha): 2
- herbicidal damage, Pi (Polygonum aviculare [6]; 2.0 kg/ha): 0 (0 is 0 to 20% damage)
- herbicidal damage, Ca (Chenopodium album): 0 (0 is 0 to 20% damage)
- herbicidal damage, Am (Amaranthus retroflexus; 2.0 kg/ha): 1
- damage to plants, Wh (Wheat; 1 kg/ha): 0 (0 represents from 0 to 25% damage)
- damage to plants, Wh (Wheat; 5 kg/ha): 0 (0 represents from 0 to 25% damage)
- damage to plants, Rg (Ryegrass; 1 kg/ha): 1
- damage to plants, Rg (Ryegrass; 5 kg/ha): 3+ (3+ represents 100% kill)
- damage to plants, Ot (Wild Oats [7]; 1 kg/ha): 1
- damage to plants, Ot (Wild Oats [7]; 5 kg/ha): 3 (3 represents 75 to 99% kill)

SMILES: COC(=O)C(C)Oc1ccc(Nc2ccc(Cl)cc2[N+](=O)[O-])cc1 (stereo not shown) [Compound 28]
- herbicidal damage, Rc (Rice [1]; 1.0 kg/ha): 1
- damage to test plants, Ww (Winter wheat; 1.0 kg/ha): 4
- damage to test plants, Mz (Maize [2]; 1.0 kg/ha): 5
- damage to test plants, Rc (Rice [3]; 1.0 kg/ha): 4
- damage to test plants, Sn (Senecio vulgaris; 1.0 kg/ha): 0 (0 is 0 to 20% damage)
- herbicidal damage, Mz (Maize [5]; 1.0 kg/ha): 0 (0 is 0 to 20% damage)
- herbicidal damage, Pi (Polygonum aviculare [6]; 1.0 kg/ha): 0 (0 is 0 to 20% damage)
- herbicidal damage, Am (Amaranthus retroflexus; 1.0 kg/ha): 0 (0 is 0 to 20% damage)
- damage to plants, Wh (Wheat; 1 kg/ha): 0 (0 represents from 0 to 25% damage)
- damage to plants, Wh (Wheat; 5 kg/ha): 2
- damage to plants, Rg (Ryegrass; 1 kg/ha): 3 (3 represents 75 to 99% kill)
- damage to plants, Rg (Ryegrass; 5 kg/ha): 3+ (3+ represents 100% kill)
- damage to plants, Ot (Wild Oats [7]; 1 kg/ha): 2
- damage to plants, Ot (Wild Oats [7]; 5 kg/ha): 3+ (3+ represents 100% kill)

SMILES: COC(=O)C(C)Oc1ccc(N(C)c2ccc(Cl)cc2[N+](=O)[O-])cc1 (stereo not shown) [Compound 27]
- herbicidal damage, Rc (Rice [1]; 2.0 kg/ha): 5
- damage to test plants, Ww (Winter wheat; 2.0 kg/ha): 4
- damage to test plants, Mz (Maize [2]; 2.0 kg/ha): 5
- damage to test plants, Rc (Rice [3]; 2.0 kg/ha): 4
- damage to test plants, Pi (Polygonum aviculare [4]): 0 (0 is 0 to 20% damage)
- damage to test plants, Sn (Senecio vulgaris; 2.0 kg/ha): 1
- damage to test plants, Rp (Rape): 0 (0 is 0 to 20% damage)
- herbicidal damage, Mz (Maize [5]; 2.0 kg/ha): 1
- herbicidal damage, Pi (Polygonum aviculare [6]; 2.0 kg/ha): 0 (0 is 0 to 20% damage)
- herbicidal damage, Ca (Chenopodium album): 0 (0 is 0 to 20% damage)
- herbicidal damage, Am (Amaranthus retroflexus; 2.0 kg/ha): 0 (0 is 0 to 20% damage)
- damage to plants, Wh (Wheat; 1 kg/ha): 0 (0 represents from 0 to 25% damage)
- damage to plants, Wh (Wheat; 5 kg/ha): 1
- damage to plants, Rg (Ryegrass; 1 kg/ha): 1
- damage to plants, Rg (Ryegrass; 5 kg/ha): 3 (3 represents 75 to 99% kill)

SMILES: COC(=O)C(C)Oc1ccc(N(C)c2ccc(Cl)cc2Cl)cc1 (stereo not shown) [Compound 1, Methyl 2-[4-(2,4-dichloro-N-methylanilino)phenoxy]-propionate]
- herbicidal damage, Rc (Rice [1]; 2.0 kg/ha): 0 (0 is 0 to 20% damage)
- damage to test plants, Ww (Winter wheat; 2.0 kg/ha): 3
- damage to test plants, Mz (Maize [2]; 2.0 kg/ha): 5
- damage to test plants, Rc (Rice [3]; 2.0 kg/ha): 0 (0 is 0 to 20% damage)
- damage to test plants, Pi (Polygonum aviculare [4]): 0 (0 is 0 to 20% damage)
- damage to test plants, Sn (Senecio vulgaris; 2.0 kg/ha): 1
- damage to test plants, Rp (Rape): 2
- herbicidal damage, Mz (Maize [5]; 2.0 kg/ha): 0 (0 is 0 to 20% damage)
- damage to plants, Wh (Wheat; 1 kg/ha): 0 (0 represents from 0 to 25% damage)
- damage to plants, Wh (Wheat; 5 kg/ha): 0 (0 represents from 0 to 25% damage)
- damage to plants, Rg (Ryegrass; 1 kg/ha): 1
- damage to plants, Rg (Ryegrass; 5 kg/ha): 3 (3 represents 75 to 99% kill)
- damage to plants, Ot (Wild Oats [7]; 1 kg/ha): 0 (0 represents from 0 to 25% damage)
- damage to plants, Ot (Wild Oats [7]; 5 kg/ha): 0 (0 represents from 0 to 25% damage)

SMILES: C#CCN(c1ccc(OC(C)C(=O)OC)cc1)c1ccc(C(F)(F)F)cc1[N+](=O)[O-] (stereo not shown) [Compound 81]
- herbicidal damage, Rc (Rice [1]; 2.0 kg/ha): 4
- damage to test plants, Ww (Winter wheat; 2.0 kg/ha): 4
- damage to test plants, Mz (Maize [2]; 2.0 kg/ha): 4
- damage to test plants, Rc (Rice [3]; 2.0 kg/ha): 4
- damage to test plants, Pi (Polygonum aviculare [4]): 0 (0 is 0 to 20% damage)
- damage to test plants, Rp (Rape): 0 (0 is 0 to 20% damage)
- herbicidal damage, Mz (Maize [5]; 2.0 kg/ha): 3
- herbicidal damage, Pi (Polygonum aviculare [6]; 2.0 kg/ha): 0 (0 is 0 to 20% damage)
- herbicidal damage, Ca (Chenopodium album): 0 (0 is 0 to 20% damage)
- herbicidal damage, Am (Amaranthus retroflexus; 2.0 kg/ha): 0 (0 is 0 to 20% damage)
- damage to plants, Ot (Wild Oats [8]; 1 kg/ha): 3+ (3+ represents 100% kill)
- damage to plants, Ot (Wild Oats [8]; 5 kg/ha): 3+ (3+ represents 100% kill)
- damage to plants, Rg (Ryegrass; 1 kg/ha): 3 (3 represents 75 to 99% kill)
- damage to plants, Rg (Ryegrass; 5 kg/ha): 3+ (3+ represents 100% kill)

SMILES: COC(=O)C(C)Oc1ccc(Nc2ccc(Br)cc2[N+](=O)[O-])cc1 (stereo not shown) [Compound 29]
- herbicidal damage, Rc (Rice [1]; 2.0 kg/ha): 3
- damage to test plants, Ww (Winter wheat; 2.0 kg/ha): 4
- damage to test plants, Mz (Maize [2]; 2.0 kg/ha): 5
- damage to test plants, Rc (Rice [3]; 2.0 kg/ha): 5
- damage to test plants, Pi (Polygonum aviculare [4]): 0 (0 is 0 to 20% damage)
- damage to test plants, Sn (Senecio vulgaris; 2.0 kg/ha): 4
- damage to test plants, Rp (Rape): 1
- herbicidal damage, Mz (Maize [5]; 2.0 kg/ha): 1
- herbicidal damage, Pi (Polygonum aviculare [6]; 2.0 kg/ha): 0 (0 is 0 to 20% damage)
- herbicidal damage, Ca (Chenopodium album): 0 (0 is 0 to 20% damage)
- herbicidal damage, Am (Amaranthus retroflexus; 2.0 kg/ha): 0 (0 is 0 to 20% damage)
- damage to plants, Wh (Wheat; 1 kg/ha): 1
- damage to plants, Wh (Wheat; 5 kg/ha): 1
- damage to plants, Rg (Ryegrass; 1 kg/ha): 2
- damage to plants, Rg (Ryegrass; 5 kg/ha): 3 (3 represents 75 to 99% kill)
- damage to plants, Ot (Wild Oats [7]; 1 kg/ha): 1
- damage to plants, Ot (Wild Oats [7]; 5 kg/ha): 3+ (3+ represents 100% kill)
